We go through three molecules from ChEMBL document CHEMBL3886245, “Dual modulators of 5HT2A and D3 receptors” (2014).

One may read the Ki as the dissociation constant of the complex between target and ligand, obtained from inhibition or displacement.

For one test, the target named is D(3) dopamine receptor (Homo sapiens, UniProt P35462). Nature of the test: (§1) Membranes were incubated in a total volume of 200 ul with a fixed concentration of radioligand (final concentration approximately 0.7 nM [3H]-spiperone for D2, 0.5 nM [3H]-spiperone for D3, and 1.1 nM [3H]-ketanserin for 5-HT2A) and ten concentrations of test compound in ranging between 10 uM-0.1 nM for 1 h at RT. At the end of the incubation, the reaction mixtures were filtered on to unifilter 96-well white microplates with bonded GF/C filters.
D(3) dopamine receptor, sequence (P35462 whole entry): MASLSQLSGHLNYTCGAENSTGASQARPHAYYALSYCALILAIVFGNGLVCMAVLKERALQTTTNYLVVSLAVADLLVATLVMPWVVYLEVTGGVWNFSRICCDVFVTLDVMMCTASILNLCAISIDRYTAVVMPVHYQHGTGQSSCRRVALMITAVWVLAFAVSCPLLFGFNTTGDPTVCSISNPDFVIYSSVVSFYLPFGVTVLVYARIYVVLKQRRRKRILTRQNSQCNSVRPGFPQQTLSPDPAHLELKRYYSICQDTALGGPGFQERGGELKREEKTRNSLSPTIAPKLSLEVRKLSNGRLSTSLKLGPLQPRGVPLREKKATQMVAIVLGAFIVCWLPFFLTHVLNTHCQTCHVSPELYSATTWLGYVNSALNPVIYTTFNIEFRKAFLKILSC

Test [1] concerns the target 5-hydroxytryptamine receptor 2A (Homo sapiens, UniProt P28223). The test is described as §1.

5-hydroxytryptamine receptor 2A, sequence (P28223 whole entry): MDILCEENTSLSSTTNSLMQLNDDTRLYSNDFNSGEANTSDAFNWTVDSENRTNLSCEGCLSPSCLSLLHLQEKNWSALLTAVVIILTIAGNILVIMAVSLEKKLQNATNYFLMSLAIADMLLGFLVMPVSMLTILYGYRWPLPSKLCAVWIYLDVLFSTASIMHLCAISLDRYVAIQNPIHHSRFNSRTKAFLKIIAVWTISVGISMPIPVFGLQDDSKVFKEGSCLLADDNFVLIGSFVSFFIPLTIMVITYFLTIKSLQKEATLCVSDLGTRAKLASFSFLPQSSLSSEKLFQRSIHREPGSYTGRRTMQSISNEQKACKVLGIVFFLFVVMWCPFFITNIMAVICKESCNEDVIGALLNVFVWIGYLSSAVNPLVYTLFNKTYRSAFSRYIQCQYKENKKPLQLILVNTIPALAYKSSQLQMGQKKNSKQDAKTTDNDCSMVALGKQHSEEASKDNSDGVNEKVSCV

On to `COCCC(=O)N[C@H]1CC[C@H](CCN2CCC(c3noc4ccc(F)cc34)CC2)CC1`, for which the Ki on D(3) dopamine receptor came out at 3.1 nM; in test [1], 37 nM.
On the same counts, the results for `O=S(=O)(N[C@H]1CC[C@H](CCN2CCC(c3noc4cc(F)ccc34)CC2)CC1)c1cccnc1` are 1.95 nM and 2.48 nM.
On the same counts, the results for `O=C(N[C@H]1CC[C@H](CCN2CCC(c3noc4cc(F)ccc34)CC2)CC1)c1ccc2c(c1)OCO2` are 2.75 nM and 1.71 nM.
